Consider one compound from patent publication US20230241046A1, “SOLID DISPERSION OF OPICAPONE” (BIAL - PORTELA & CA, S.A., priority 2020, published 2023).

Data set [1] is described as follows: Fasted state simulated gastric fluid (FaSSGF) kinetic solubility assay. It counts as physicochemical. The note with it: kinetic solubility in FaSSGF, 0-24 h. On the procedure: (§1) The content of opicapone in kinetic solubility studies was analysed by HPLC coupled to a UV/Vis detector (Waters series, USA). A C18 column was used. The mobile phase consisted of 0.1% o-phophoric acid and acetonitrile (68:32 v/v).
Kinetic solubility studies on the opicapone solid dispersion were performed at room temperature at a loading equivalent to˜10 mg of opicapone per mL of FaSSGF, in a total of 5 mL of medium. Samples were tested at 0, 0.5, 1, 2, 4 and 24 hours (Klein, AAPS J., 2010, 12, 397-406).
(§2) Area under the Concentration Curve (AUC), Cmax and other pharmacokinetic parameters were calculated using GraphPad Prism 7 for Windows (GraphPad Software, USA).

Data set [2] is described as follows: Fasted state simulated intestinal fluid (FaSSIF) kinetic solubility assay. The note with it: kinetic solubility in FaSSIF, 0-24 h. It counts as physicochemical. On the procedure:
as §1
Kinetic solubility studies on the opicapone solid dispersion were performed at room temperature at a loading equivalent to˜75 mg of opicapone per mL of FaSSIF, in a total of 5 mL of medium. Samples were tested at 0, 0.5, 1, 2, 4 and 24 hours (Klein, AAPS J., 2010, 12, 397-406).
as §2

Data set [3] in a line: In vivo pharmacokinetics after oral administration. The note with it: male Wistar rats, 3 mg/kg of opicapone, plasma. On the procedure: The pharmacokinetics of solid dispersions of amorphous opicapone were evaluated in male Wistar rats, after oral administration of Sample 1, 4 or 6, or a control sample of micronised crystalline opicapone, at a dose of 3 mg/kg of opicapone. The exposure of these solid dispersions, formulated as a HPMC suspensions (50 mg of opicapone per 100 mL of 0.2% HPMC), were compared with the exposure of micronised crystalline opicapone, at a dose of 3 mg/kg of opicapone.
During the studies, blood was collected at different time points, from tail vein, spun at 1500×g in a refrigerated centrifuge (4° C.) for 15 min, and the plasma obtained was stored at −80° C. until further analysis. The plasma samples collected from twenty animals (140 samples), were analysed for opicapone exposure. The bioanalysis involved the use of LC-MS/MS after plasma precipitation.

A short description of data set [4]: Particle size distribution (circle equivalent diameter) by SEM. It is filed as physicochemical. The note with it: particle size distribution (equivalent circular diameter) after micronisation, MC JETMILL 200. On the procedure:
A Phenom Pro-X Electron microscope (PhenomWorld, Thermo Fisher Scientific, USA) equipped with a CeB6 electron source and backscatter electron detector was used to determine the morphology and particle size of the samples.
The powder was placed on conductive adhesive tape. The holder for non-conductive samples was used. The excess of sample (loosely bound to the tape) was removed using compressed air.
Particle morphology was assessed by Automated Image Mapping software and particle size determination was made by Particlemetric software.

As for `Cc1c(Cl)c(C)[n+]([O-])c(Cl)c1-c1noc(-c2cc(O)c(O)c([N+](=O)[O-])c2)n1` [Opicapone Control, opicapone], the AUC was 7.625 µg·h/mL in data set [1] (Experiment 1); 5.75 µg·h/mL in data set [1] (Experiment 2); 5.86 µg·h/mL in data set [1] (Experiment 3); 1589 µg·h/mL in data set [2] (Experiment 1); 1310 µg·h/mL in data set [2] (Experiment 2); 1400 µg·h/mL in data set [2] (Experiment 3). The Cmax in data set [1] (Experiment 1) is 300 ng/mL; in data set [1] (Experiment 2), 300 ng/mL; in data set [1] (Experiment 3) it was 260 ng/mL; in data set [2] (Experiment 1), 69000 ng/mL; in data set [2] (Experiment 2) it was 86000 ng/mL; in data set [2] (Experiment 3) it was 89000 ng/mL. Further, the Cmax in data set [3] (rat) was 379 ng/mL. Also, the tmax in data set [1] (Experiment 2) is 24 h; in data set [1] (Experiment 3), 24 h; in data set [2] (room temperature, Experiment 1) it was 24 h; in data set [2] (Experiment 2), 2 h; in data set [3] (rat), 2 h. The compound further gave a tlast in data set [3] of 8 h. In data set [3] (rat), this compound showed an exposure AUC(0-t) of 1.4 µg·h/mL. Further, the concentration at 8 h in data set [3] (rat, read-out: Clast) turned out to be 78.6 ng/mL. Further, in data set [4], the D10 is not below 4 μm. Further, the D50 in data set [4] is 10-40 μm. In data set [4], the D95 is listed as not above 80 μm.
